“Also recorded” adds a separate entry of the source. Like-named read-outs stand apart in the source and are kept apart here.
Legend:
SARS-CoV-2 M^pro [1] = target: T1, SARS-CoV-2 M^pro (Severe acute respiratory syndrome coronavirus 2, UniProt P0DTD1); experiment: M^pro protease inhibition (FRET assay); type: biochemical; details: for Relative M^pro Inhibition: estimated IC50 class
SARS-CoV-2 PL^pro = SARS-CoV-2 PL^pro (Severe acute respiratory syndrome coronavirus 2, UniProt P0DTD1); experiment: PL^pro fluorescence proteolysis assay (zRLRGG/AMC substrate); type: biochemical; details: for Relative PL^pro Inhibition: estimated IC50 class
SARS-CoV-2 [2] = experiment: Combination antiviral (synergy) assay with remdesivir; type: cell-based; details: for interaction with remdesivir (additive or synergistic): inhibition of SARS-CoV-2 replication in combination with remdesivir; for Synergy Score: combination with remdesivir, SynergyFinder, ZIP method
SARS-CoV-2 [3] = experiment: SARS-CoV-2 viral replication assay in Vero E6 cells; type: cell-based
SARS-CoV-2 [4] = experiment: microbe, parasite or virus in culture; type: cell-based
in vitro [5] = details: African green monkey
Procedure: (§1) Cytotoxicity was also performed using the MTT assay (Roche), according to the manufacturer's instructions. Cytotoxicity was performed in uninfected VeroE6 cells with same compound dilutions and concurrent with viral replication assay. All assays were performed in biologically independent triplicates.

in vitro [6] = details: human
SARS-CoV-2 M^pro [7] = target: T1, SARS-CoV-2 M^pro; experiment: M^pro 1D 1H-NMR proteolysis assay; type: biochemical; details: 50 μM inhibitor
HEK 293T cells = experiment: Cytotoxicity in HEK 293T cells; details: cytotoxicity, HEK 293T Cells
Vero E6 cells = experiment: Cytotoxicity MTT assay in Vero E6 cells; details: cytotoxicity, Vero E6 Cells
Procedure: as §1

[8] = Cytotoxicity MTT assay in Vero E6 cells; details: African green monkey
Procedure: as §1

[9] = Cytotoxicity in HEK 293T cells; details: human
[10] = Severe acute respiratory syndrome coronavirus 2, Vero C1008, viral replication, Vero E6 Cells, read-out: IC50
[11] = Severe acute respiratory syndrome coronavirus 2, viral replication, HEK 293T Cells (hACE2-293T), read-out: IC50
[12] = Severe acute respiratory syndrome coronavirus 2, Vero C1008
[13] = Severe acute respiratory syndrome coronavirus 2, HEK-293T

Structure (SMILES)	inhibition of M^pro activity (words) (SARS-CoV-2 M^pro [1])	inhibition of PL^pro protease activity (words) (SARS-CoV-2 PL^pro)	interaction with remdesivir (additive or synergistic) (SARS-CoV-2 [2])	Relative M^pro Inhibition (SARS-CoV-2 M^pro [1])	Relative PL^pro Inhibition (SARS-CoV-2 PL^pro)	IC50 (SARS-CoV-2 [3]; [10])	IC50 (SARS-CoV-2 [4]; [11])	Synergy Score (SARS-CoV-2 [2])	CC50 (in vitro [6])	M^pro inhibition in the NMR assay (SARS-CoV-2 M^pro [7])	CC50 (Vero E6 cells)	also measured
CC(=O)Nc1ccc(C)c(C(=O)N[C@H](C)c2cccc3ccccc23)c1 [Compound 6]	not M^pro	specifically inhibits PL^pro	synergy with remdesivir									
Cc1cnc(C(=O)N[C@H]2CCCCC/C=C\[C@@H]3C[C@@]3(C(=O)NS(=O)(=O)C3CC3)NC(=O)[C@@H]3C[C@@H](Oc4nc5ccccc5c5ccccc45)CN3C2=O)cn1 [PAR, paritaprevir]	not M^pro	did inhibit PL^pro protease activity	synergistic	none (none indicates no observed inhibition of protease activity at drug concentrations of 50 μM)	moderate (moderate to an estimated IC50 in the range 20-50 μM)	6 µM	0.55 µM	+17.3	> 100 µM			interaction with remdesivir (additive or synergistic) (SARS-CoV-2 [2]; listed as paritaprevir): synergized with remdesivir; CC50 (in vitro [5]): > 100 µM
C=C[C@@H]1C[C@]1(NC(=O)[C@@H]1C[C@@H]2CN1C(=O)[C@H](C(C)(C)C)NC(=O)O[C@@H]1C[C@H]1CCCCCc1nc3ccc(OC)cc3nc1O2)C(=O)NS(=O)(=O)C1CC1.O [GRZ, grazoprevir]	moderately inhibit; also recorded: inhibited both M^pro and PL^pro	did inhibit PL^pro protease activity	synergistic	moderate (moderate to an estimated IC50 in the range 20-50 μM)	moderate (moderate to an estimated IC50 in the range 20-50 μM)			+25.0		moderate inhibitors of M^pro	> 50 µM	IC50 (SARS-CoV-2 [3]; viral replication, Vero E6 Cells, read-out: IC50): 10.8 µM; IC50 (SARS-CoV-2 [4]; viral replication, HEK 293T Cells (hACE2-293T), read-out: IC50): 16.7 µM; interaction with remdesivir (additive or synergistic) (SARS-CoV-2 [2]; listed as grazoprevir): synergized with remdesivir; CC50 (HEK 293T cells): > 50 µM
CCCC[C@H](NC(=O)[C@@H]1[C@@H]2[C@H](CN1C(=O)[C@@H](NC(=O)NC1(CS(=O)(=O)C(C)(C)C)CCCCC1)C(C)(C)C)C2(C)C)C(=O)C(=O)NC1CC1 [NAR, narlaprevir]								−3.6				IC50 (SARS-CoV-2 [3]; [12]): 7.7 µM; IC50 (SARS-CoV-2 [4]; [13]): 15 µM; CC50 (HEK 293T cells): 72 µM; CC50 [8]: > 20 µM
CC[C@@H]1C[C@]1(NC(=O)[C@@H]1C[C@@H]2CN1C(=O)[C@H](C(C)(C)C)NC(=O)OCC(C)(C)CCCCc1cccc3c1CN(C3)C(=O)O2)C(=O)NS(=O)(=O)C1CC1 [VAN, vaniprevir]			synergistic	strong (Strong inhibition corresponds to an estimated IC50 < about 20 μM)	strong (Strong inhibition corresponds to an estimated IC50 < about 20 μM)			+10.9		inhibitory activity comparable to telaprevir	4.3 µM	inhibition of M^pro activity (words) (SARS-CoV-2 M^pro [1]; listed as Vaniprevir): good inhibitor of both M^pro and PL^pro; inhibition of M^pro activity (words) (SARS-CoV-2 M^pro [1]; listed as vaniprevir): inhibited both M^pro and PL^pro; inhibition of PL^pro protease activity (words) (SARS-CoV-2 PL^pro; listed as Vaniprevir): good inhibitor of both M^pro and PL^pro; inhibition of PL^pro protease activity (words) (SARS-CoV-2 PL^pro; listed as vaniprevir): did inhibit PL^pro protease activity; IC50 (SARS-CoV-2 [3]; [12]): 6.2 µM; IC50 (SARS-CoV-2 [4]; [13]): 3 µM; interaction with remdesivir (additive or synergistic) (SARS-CoV-2 [2]; listed as vaniprevir): synergized with remdesivir; CC50 [9]: > 50 µM
C=C[C@@H]1C[C@]1(NC(=O)[C@@H]1C[C@@H](Oc2ncc(OC)c3ccc(Cl)cc23)CN1C(=O)[C@@H](NC(=O)OC(C)(C)C)C(C)(C)C)C(=O)NS(=O)(=O)C1CC1 [asunaprevir]	moderately inhibit											
CC(C)(C)NC(=O)N[C@H](C(=O)N1C[C@H]2[C@@H]([C@H]1C(=O)NC(CC1CCC1)C(=O)C(N)=O)C2(C)C)C(C)(C)C (stereo partly drawn) [BOC, boceprevir]						19.6 µM	5.4 µM	−7.6	> 50 µM			CC50 (in vitro [5]): > 50 µM
COc1ccc2c(O[C@@H]3C[C@H]4C(=O)N[C@]5(C(=O)NS(=O)(=O)C6CC6)C[C@H]5/C=C\CCCCN(C)C(=O)[C@@H]4C3)cc(-c3nc(C(C)C)cs3)nc2c1C [SIM, simeprevir]	moderately inhibit; also recorded: inhibited both M^pro and PL^pro	did inhibit PL^pro protease activity	synergistic	moderate (moderate to an estimated IC50 in the range 20-50 μM)	strong (Strong inhibition corresponds to an estimated IC50 < about 20 μM)	4.2 µM	2.3 µM	+30.2	> 50 µM	moderate inhibitors of M^pro	2.1 µM	interaction with remdesivir (additive or synergistic) (SARS-CoV-2 [2]; listed as simeprevir): synergized with remdesivir
